Measured values taken from ChEMBL document CHEMBL5036373, “Enantiopure Benzofuran-2-carboxamides of 1-Aryltetrahydro-β-carbolines Are Potent Antimalarials In Vitro” (ACS Med Chem Lett, 2022).
The source made the active and inactive calls. No cut-off for these calls is given here.

Assays:
Plasmodium falciparum [1] = assay: Antiplasmodial activity against chloroquine, pyrimethamine and mefloquine-resistant asexual blood stage of Plasmodium falciparum Dd2 assessed as reduction in parasite growth after 72 hrs by SYBR green I staining based fluorescence assay; assay type: functional, organism-based; settings: Dd2, 72 h
Plasmodium falciparum [2] = assay: Antiplasmodial activity against chloroquine, pyrimethamine and mefloquine-sensitive asexual blood stage of Plasmodium falciparum 3D7 assessed as reduction in parasite growth after 72 hrs by SYBR green I staining based fluorescence assay; assay type: functional, organism-based; settings: 3D7, 72 h
Plasmodium berghei = assay: In vivo antimalarial activity against blood stage transgenic Plasmodium berghei ANKA strain (PbGFP-Luccon) infected in swiss Webster mouse assessed as supression of parasitemia at 40 mg/kg, po administered once daily starting from day 2 to 6 post infection and measured at day 7 by luciferase substrate based imaging analysis; assay type: functional, organism-based; settings: time 5.0 day
[3] = Solubility of the compound in pH 7.4 PBS buffer by LC-MS analysis; assay type: physicochemical
[4] = Stability in CD-1 mouse plasma measured after 60 mins LC-MS analysis; assay type: ADME, cell-free; settings: read-out: Stability
[5] = Partition coefficient, logD between 1-octanol and pH 7.4 PBS by LC-MS analysis; assay type: physicochemical; settings: 1-octanol/PBS
[6] = Stability in CD-1 mouse liver microsomes assessed as half life measured after 60 mins in presence of NADPH LC-MS analysis; assay type: ADME, Microsome
[7] = Cytotoxicity against human primary hepatocytes assessed as reduction in cell viability incubated for 24 hrs by DAPI staining based fluorescence assay; design: species or system Hepatocyte
[8] = Plasma protein binding in CD-1 mouse at 1 to 10 uM by LC-MS analysis; assay type: ADME, cell-free; settings: dose 1-10 µM, read-out: PPB
[9] = Oral bioavailability in rat; assay type: ADME, organism-based; settings: in vivo
[10] = AUC(0 to 24) in rat at 40 mg/kg, po; assay type: ADME, organism-based; design: time < 24 hr, route oral, dose 40 mg/kg; settings: in vivo
[11] = Half life in rat plasma at 40 mg/kg, po; assay type: ADME, organism-based
Escherichia coli = assay: Antibacterial activity against Escherichia coli BL21 (DE3) cells assessed as inhibition of bacterial growth measured after 18 hrs measured by cell density meter; assay type: functional
[12] = Stability in mouse hepatocyte assessed as half life measured after 120 mins by LC-MS analysis; assay type: ADME, tissue-based; settings: hepatocytes
[13] = Cytotoxicity against human HEK293 cells assessed as reduction in cell viability incubated for 24 hrs by resazurin dye based fluorescence assay

SMILES	EC50 (Plasmodium falciparum [1])	also measured
O=C(c1cc2cc(Cl)ccc2[nH]1)N1CCc2c([nH]c3ccccc23)[C@H]1c1ccc(Cl)cc1	1250 nM	–
O=C(c1cc2cc(Br)ccc2o1)N1CCc2c([nH]c3ccccc23)[C@H]1c1ccc(Br)cc1	239 nM	–
Clc1ccc(C2NCCc3c2[nH]c2ccccc32)cc1 (racemic)	5000 nM	–
O=C(c1cc2cc(Br)ccc2o1)N1CCc2c([nH]c3ccccc23)[C@H]1c1ccc(F)cc1	211 nM	–
CCN(CC)CCCC(C)Nc1ccnc2cc(Cl)ccc12 (stereo not drawn) [CHLOROQUINE]	319 nM	EC50 (Plasmodium falciparum [2]): 7 nM; Activity (Plasmodium berghei): Active
O=C(c1cc2cc(Br)ccc2o1)N1CCc2c([nH]c3ccccc23)[C@H]1c1ccccc1	452 nM	–
CCOc1ccc([C@@H]2c3[nH]c4ccccc4c3CCN2C(=O)c2nc3cc(Br)ccc3[nH]2)cc1	625 nM	–
CC(=O)N1CCc2c([nH]c3ccccc23)C1c1ccc(Cl)cc1 (racemic)	2500 nM	–
CCOc1ccc([C@@H]2c3[nH]c4ccccc4c3CCN2C(=O)c2cc3cc(Cl)ccc3o2)cc1	129 nM	EC50 (Plasmodium falciparum [2]): 175 nM
O=C(CCC1CCCC1)N1CCc2c([nH]c3ccccc23)C1c1ccc(Cl)cc1 (racemic)	726 nM	–
O=C(c1cc2cc(Br)ccc2o1)N1CCc2c([nH]c3ccccc23)[C@@H]1c1ccc(Cl)cc1	28 nM	EC50 (Plasmodium falciparum [2]): 15 nM
O=C(c1cc2ccccc2o1)N1CCc2c([nH]c3ccccc23)[C@H]1c1ccc(Cl)cc1	1250 nM	–
O=C(c1ccc(Cl)c(Cl)c1)N1CCc2c([nH]c3ccccc23)C1c1ccc(Cl)cc1 (racemic)	1240 nM	–
COc1ccc(C(=O)N2CCc3c([nH]c4ccccc34)C2c2ccc(Cl)cc2)cc1 (racemic)	1250 nM	–
O=C(c1cc2cc(Cl)ccc2o1)N1CCc2c([nH]c3ccccc23)[C@H]1c1ccc(Br)cc1	194 nM	–
CCOc1ccc([C@@H]2c3[nH]c4ccccc4c3CCN2C(=O)c2cc3ccccc3o2)cc1	1250 nM	–

SMILES	EC50 (Plasmodium falciparum [1])	also measured
O=C(c1cc2cc(Br)ccc2o1)N1CCc2c([nH]c3ccccc23)C1c1ccc(Cl)cc1 (racemic)	185 nM	–
O=C(c1cc2cc(Cl)ccc2o1)N1CCc2c([nH]c3ccccc23)[C@H]1c1ccc(Cl)cc1	173 nM	EC50 (Plasmodium falciparum [2]): 304 nM
O=C(c1cc2ccc(Br)cc2o1)N1CCc2c([nH]c3ccccc23)[C@H]1c1ccc(Cl)cc1	796 nM	–
CCOc1ccc([C@@H]2c3[nH]c4ccccc4c3CCN2C(=O)c2cc3cc(Br)ccc3o2)cc1	138 nM	EC50 (Plasmodium falciparum [2]): 120 nM
CCOc1ccc([C@H]2c3[nH]c4ccccc4c3CCN2C(=O)c2cc3cc(Br)ccc3o2)cc1	625 nM	–
CCOc1ccc([C@@H]2c3[nH]c4ccccc4c3CCN2C(=O)c2nc3cc(Br)ccc3o2)cc1	770 nM	EC50 (Plasmodium falciparum [2]): 937 nM
Cc1ccc2oc(C(=O)N3CCc4c([nH]c5ccccc45)[C@H]3c3ccc(Cl)cc3)cc2c1	198 nM	–
O=C(c1ccc(Br)cc1)N1CCc2c([nH]c3ccccc23)C1c1ccc(Cl)cc1 (racemic)	682 nM	–
CCOc1ccc([C@@H]2c3[nH]c4ccccc4c3CCN2C(=O)c2cc3cc(Cl)ccc3[nH]2)cc1	1250 nM	–
C[C@@H]1CC[C@H]2[C@@H](C)C(=O)O[C@@H]3O[C@@]4(C)CC[C@@H]1[C@]32OO4 [ARTEMISININ]	11 nM	EC50 (Plasmodium falciparum [2]): 10 nM
N#Cc1ccc([C@@H]2c3[nH]c4ccccc4c3CCN2C(=O)c2cc3cc(Br)ccc3o2)cc1	216 nM	–
CCOc1ccc([C@@H]2c3[nH]c4ccccc4c3CCN2C(=O)c2cc3cc(F)ccc3o2)cc1	123 nM	–
O=C(c1cc2cc(Cl)ccc2o1)N1CCc2c([nH]c3ccccc23)[C@H]1c1ccc(F)cc1	143 nM	–
O=C(c1ccccc1)N1CCc2c([nH]c3ccccc23)C1c1ccc(Cl)cc1 (racemic)	2500 nM	–
O=C(c1cc2cc(Br)ccc2o1)N1CCc2c([nH]c3ccccc23)[C@H]1c1ccc(Cl)cc1	155 nM	solubility [3]: < 0.044 µM; EC50 (Plasmodium falciparum [2]): 180 nM; remaining at 1 h [4]: 100%; logD [5]: > 5; half-life [6]: 1.32 h; CC50 at 24 h [7]: > 10000 nM; Activity (Plasmodium berghei): inactive; fraction unbound at up to 10 µM [8]: < 0.001; bioavailability [9]: 11%; AUC at 24 h [10]: 28200 ng·h/mL; half-life [11]: 8 h; MIC (Escherichia coli): > 25 µM; half-life [12]: 2.92 h; CC50 at 24 h [13]: > 50000 nM
